Laboratory results: ChEMBL document CHEMBL1151508, “Preparation and activities of 4-epi and 4-deoxy-4-amino analogs derived from 9-deoxo-8a-aza-8a-homoerythromycin A” (1994)
Values after ≈ are worked out from the molar mass of the structure shown.

Assays:
Format in all cases: functional
Escherichia coli = assay: In vitro minimum inhibitory concentration against Escherichia coli MB2884.
Haemophilus influenzae = assay: In vitro minimum inhibitory concentration against Haemophilus influenzae MB5363.
Streptococcus pneumoniae = assay: In vitro minimum inhibitory concentration against Streptococcus pneumoniae CL2883.
Staphylococcus aureus = assay: In vitro minimum inhibitory concentration against Staphylococcus aureus MB2865.
Klebsiella pneumoniae = assay: In vitro minimum inhibitory concentration against Klebsiella pneumoniae MB4005.
Enterococcus faecalis = assay: In vitro minimum inhibitory concentration against Enterococcus faecalis MB5407.

Row | MIC (Escherichia coli) [mg/L] | MIC (Haemophilus influenzae) [mg/L] | MIC (Streptococcus pneumoniae) [mg/L] | MIC (Staphylococcus aureus) [mg/L] | MIC (Klebsiella pneumoniae) [mg/L] | MIC (Enterococcus faecalis) [mg/L] | Structure (SMILES)
1 | 0.5 (≈ 0.646 µM) | 0.5 (≈ 0.646 µM) | 0.06 (≈ 0.0775 µM) | 2 (≈ 2.58 µM) | 0.25 (≈ 0.323 µM) | 4 (≈ 5.17 µM) | C=CCN1C[C@H](C)[C@@H](O)[C@](C)(O)[C@@H](CC)OC(=O)[C@H](C)[C@@H](O[C@H]2C[C@@](C)(OC)C(N)[C@H](C)O2)[C@H](C)[C@@H](O[C@@H]2O[C@H](C)C[C@H](N(C)C)[C@H]2O)[C@](C)(O)C[C@H]1C (some centres undefined)
2 | 1 (≈ 1.34 µM) | 1 (≈ 1.34 µM) | 0.03 (≈ 0.0401 µM) | 0.5 (≈ 0.668 µM) | 1 (≈ 1.34 µM) | 2 (≈ 2.67 µM) | CC[C@H]1OC(=O)[C@H](C)[C@@H](O[C@H]2C[C@@](C)(OC)[C@@H](O)[C@H](C)O2)[C@H](C)[C@@H](O[C@@H]2O[C@H](C)C[C@H](N(C)C)[C@H]2O)[C@](C)(O)C[C@@H](C)N(C)C[C@H](C)[C@@H](O)[C@]1(C)O [L-701677]
3 | 0.5 (≈ 0.644 µM) | 0.5 (≈ 0.644 µM) | 0.06 (≈ 0.0773 µM) | 1 (≈ 1.29 µM) | 0.5 (≈ 0.644 µM) | 2 (≈ 2.58 µM) | CCCN1C[C@H](C)[C@@H](O)[C@](C)(O)[C@@H](CC)OC(=O)[C@H](C)[C@@H](O[C@H]2C[C@@](C)(OC)C(N)[C@H](C)O2)[C@H](C)[C@@H](O[C@@H]2O[C@H](C)C[C@H](N(C)C)[C@H]2O)[C@](C)(O)C[C@H]1C (some centres undefined)
4 | 0.25 (≈ 0.258 µM) | 0.5 (≈ 0.515 µM) | 0.06 (≈ 0.0618 µM) | 1 (≈ 1.03 µM) | 0.25 (≈ 0.258 µM) | 2 (≈ 2.06 µM) | CC[C@H]1OC(=O)[C@H](C)[C@@H](O[C@H]2C[C@@](C)(OC)[C@H](N)[C@H](C)O2)[C@H](C)[C@@H](O[C@@H]2O[C@H](C)C[C@H](N(C)C)[C@H]2OC(=O)OCC2c3ccccc3-c3ccccc32)[C@](C)(O)C[C@@H](C)N(C)C[C@H](C)[C@@H](O)[C@]1(C)O
5 | 1 (≈ 0.988 µM) | 4 (≈ 3.95 µM) | 0.5 (≈ 0.494 µM) | 16 (≈ 15.8 µM) | 4 (≈ 3.95 µM) | 8 (≈ 7.9 µM) | CC[C@H]1OC(=O)[C@H](C)[C@@H](O[C@H]2C[C@@](C)(OC)[C@H](NC(C)=O)[C@H](C)O2)[C@H](C)[C@@H](O[C@@H]2O[C@H](C)C[C@H](N(C)C)[C@H]2OC(=O)OCC2c3ccccc3-c3ccccc32)[C@](C)(O)C[C@@H](C)N(C)C[C@H](C)[C@@H](O)[C@]1(C)O
6 | 1 (≈ 1 µM) | 2 (≈ 2 µM) | 0.5 (≈ 0.501 µM) | 8 (≈ 8.01 µM) | 2 (≈ 2 µM) | 8 (≈ 8.01 µM) | CC[C@H]1OC(=O)[C@H](C)[C@@H](O[C@H]2C[C@@](C)(OC)[C@@H](N(C)C)[C@H](C)O2)[C@H](C)[C@@H](O[C@@H]2O[C@H](C)C[C@H](N(C)C)[C@H]2OC(=O)OCC2c3ccccc3-c3ccccc32)[C@](C)(O)C[C@@H](C)N(C)C[C@H](C)[C@@H](O)[C@]1(C)O
7 | 0.25 (≈ 0.249 µM) | 0.5 (≈ 0.499 µM) | 0.03 (≈ 0.0299 µM) | 0.25 (≈ 0.249 µM) | 0.13 (≈ 0.13 µM) | 1 (≈ 0.998 µM) | CC[C@H]1OC(=O)[C@H](C)[C@@H](O[C@H]2C[C@@](C)(OC)[C@H](N)[C@H](C)O2)[C@H](C)[C@@H](O[C@@H]2O[C@H](C)C[C@H](N(C)C)[C@H]2OC(=O)OCC2c3ccccc3-c3ccccc32)[C@](C)(O)C[C@@H](C)N(CCF)C[C@H](C)[C@@H](O)[C@]1(C)O
8 | 4 (≈ 3.92 µM) | 4 (≈ 3.92 µM) | 0.13 (≈ 0.127 µM) | 4 (≈ 3.92 µM) | 4 (≈ 3.92 µM) | 2 (≈ 1.96 µM) | CC[C@H]1OC(=O)[C@H](C)[C@@H](O[C@H]2C[C@@](C)(OC)[C@@H](n3cccc3)[C@H](C)O2)[C@H](C)[C@@H](O[C@@H]2O[C@H](C)C[C@H](N(C)C)[C@H]2OC(=O)OCC2c3ccccc3-c3ccccc32)[C@](C)(O)C[C@@H](C)N(C)C[C@H](C)[C@@H](O)[C@]1(C)O
9 | 1 (≈ 1.34 µM) | 1 (≈ 1.34 µM) | 0.06 (≈ 0.0801 µM) | 0.5 (≈ 0.668 µM) | 4 (≈ 5.34 µM) | 1 (≈ 1.34 µM) | CC[C@H]1OC(=O)[C@H](C)[C@@H](O[C@H]2C[C@@](C)(OC)[C@H](O)[C@H](C)O2)[C@H](C)[C@@H](O[C@@H]2O[C@H](C)C[C@H](N(C)C)[C@H]2O)[C@](C)(O)C[C@@H](C)N(C)C[C@H](C)[C@@H](O)[C@]1(C)O
10 | 4 (≈ 3.92 µM) | 16 (≈ 15.7 µM) | 0.25 (≈ 0.245 µM) | 8 (≈ 7.84 µM) | 8 (≈ 7.84 µM) | 4 (≈ 3.92 µM) | CC[C@H]1OC(=O)[C@H](C)[C@@H](O[C@H]2C[C@@](C)(OC)[C@H](n3cccc3)[C@H](C)O2)[C@H](C)[C@@H](O[C@@H]2O[C@H](C)C[C@H](N(C)C)[C@H]2OC(=O)OCC2c3ccccc3-c3ccccc32)[C@](C)(O)C[C@@H](C)N(C)C[C@H](C)[C@@H](O)[C@]1(C)O
11 | 0.5 (≈ 0.501 µM) | 2 (≈ 2 µM) | 0.5 (≈ 0.501 µM) | 32 (≈ 32.1 µM) | 2 (≈ 2 µM) | 16 (≈ 16 µM) | CC[C@H]1OC(=O)[C@H](C)[C@@H](O[C@H]2C[C@@](C)(OC)[C@H](N(C)C)[C@H](C)O2)[C@H](C)[C@@H](O[C@@H]2O[C@H](C)C[C@H](N(C)C)[C@H]2OC(=O)OCC2c3ccccc3-c3ccccc32)[C@](C)(O)C[C@@H](C)N(C)C[C@H](C)[C@@H](O)[C@]1(C)O
12 | 0.25 (≈ 0.251 µM) | 1 (≈ 1 µM) | 0.03 (≈ 0.0301 µM) | 1 (≈ 1 µM) | 0.13 (≈ 0.13 µM) | 4 (≈ 4.01 µM) | C=CCN1C[C@H](C)[C@@H](O)[C@](C)(O)[C@@H](CC)OC(=O)[C@H](C)[C@@H](O[C@H]2C[C@@](C)(OC)[C@@H](N)[C@H](C)O2)[C@H](C)[C@@H](O[C@@H]2O[C@H](C)C[C@H](N(C)C)[C@H]2OC(=O)OCC2c3ccccc3-c3ccccc32)[C@](C)(O)C[C@H]1C
13 | 0.25 (≈ 0.249 µM) | 1 (≈ 0.998 µM) | 0.03 (≈ 0.0299 µM) | 0.5 (≈ 0.499 µM) | 0.13 (≈ 0.13 µM) | 2 (≈ 2 µM) | CC[C@H]1OC(=O)[C@H](C)[C@@H](O[C@H]2C[C@@](C)(OC)[C@@H](N)[C@H](C)O2)[C@H](C)[C@@H](O[C@@H]2O[C@H](C)C[C@H](N(C)C)[C@H]2OC(=O)OCC2c3ccccc3-c3ccccc32)[C@](C)(O)C[C@@H](C)N(CCF)C[C@H](C)[C@@H](O)[C@]1(C)O
14 | 0.25 (≈ 0.334 µM) | 1 (≈ 1.34 µM) | 0.03 (≈ 0.0401 µM) | 2 (≈ 2.67 µM) | 0.13 (≈ 0.174 µM) | 4 (≈ 5.35 µM) | CC[C@H]1OC(=O)[C@H](C)[C@@H](O[C@H]2C[C@@](C)(OC)C(N)[C@H](C)O2)[C@H](C)[C@@H](O[C@@H]2O[C@H](C)C[C@H](N(C)C)[C@H]2O)[C@](C)(O)C[C@@H](C)N(C)C[C@H](C)[C@@H](O)[C@]1(C)O (some centres undefined)
15 | 0.13 (≈ 0.134 µM) | 0.25 (≈ 0.258 µM) | 0.06 (≈ 0.0618 µM) | 1 (≈ 1.03 µM) | 0.13 (≈ 0.134 µM) | 2 (≈ 2.06 µM) | CC[C@H]1OC(=O)[C@H](C)[C@@H](O[C@H]2C[C@@](C)(OC)[C@@H](N)[C@H](C)O2)[C@H](C)[C@@H](O[C@@H]2O[C@H](C)C[C@H](N(C)C)[C@H]2OC(=O)OCC2c3ccccc3-c3ccccc32)[C@](C)(O)C[C@@H](C)N(C)C[C@H](C)[C@@H](O)[C@]1(C)O
16 | 2 (≈ 1.98 µM) | 8 (≈ 7.9 µM) | 0.25 (≈ 0.247 µM) | 2 (≈ 1.98 µM) | 2 (≈ 1.98 µM) | 8 (≈ 7.9 µM) | CC[C@H]1OC(=O)[C@H](C)[C@@H](O[C@H]2C[C@@](C)(OC)[C@@H](NC(C)=O)[C@H](C)O2)[C@H](C)[C@@H](O[C@@H]2O[C@H](C)C[C@H](N(C)C)[C@H]2OC(=O)OCC2c3ccccc3-c3ccccc32)[C@](C)(O)C[C@@H](C)N(C)C[C@H](C)[C@@H](O)[C@]1(C)O
17 | 0.5 (≈ 0.502 µM) | 0.5 (≈ 0.502 µM) | 0.03 (≈ 0.0301 µM) | 1 (≈ 1 µM) | 0.25 (≈ 0.251 µM) | 2 (≈ 2.01 µM) | C=CCN1C[C@H](C)[C@@H](O)[C@](C)(O)[C@@H](CC)OC(=O)[C@H](C)[C@@H](O[C@H]2C[C@@](C)(OC)[C@H](N)[C@H](C)O2)[C@H](C)[C@@H](O[C@@H]2O[C@H](C)C[C@H](N(C)C)[C@H]2OC(=O)OCC2c3ccccc3-c3ccccc32)[C@](C)(O)C[C@H]1C

Row | Structure (SMILES) | MIC (Escherichia coli) [mg/L] | MIC (Haemophilus influenzae) [mg/L] | MIC (Streptococcus pneumoniae) [mg/L] | MIC (Staphylococcus aureus) [mg/L] | MIC (Klebsiella pneumoniae) [mg/L] | MIC (Enterococcus faecalis) [mg/L]
18 | CC[C@H]1OC(=O)[C@H](C)[C@@H](O[C@H]2C[C@@](C)(OC)[C@@H](O)[C@H](C)O2)[C@H](C)[C@@H](O[C@@H]2O[C@H](C)C[C@H](N(C)C)[C@H]2O)[C@](C)(O)C[C@@H](C)CN(C)[C@H](C)[C@@H](O)[C@]1(C)O [AZITHROMYCIN] | 1 (≈ 1.34 µM) | 0.5 (≈ 0.668 µM) | 0.03 (≈ 0.0401 µM) | 1 (≈ 1.34 µM) | 2 (≈ 2.67 µM) | 4 (≈ 5.34 µM)
19 | CC[C@H]1OC(=O)[C@H](C)[C@@H](O[C@H]2C[C@@](C)(OC)[C@@H](O)[C@H](C)O2)[C@H](C)[C@@H](O[C@@H]2O[C@H](C)C[C@H](N(C)C)[C@H]2O)[C@](C)(O)C[C@@H](C)C(=O)[C@H](C)[C@@H](O)[C@]1(C)O [ERYTHROMYCIN] | 32 (≈ 43.6 µM) | 2 (≈ 2.73 µM) | 0.02 (≈ 0.0273 µM) | 0.25 (≈ 0.341 µM) | 32 (≈ 43.6 µM) | 1 (≈ 1.36 µM)
